Test results: US7759344B2, “Bis-aryl amide derivatives and methods of use” (priority 2007, dated 2010)

Molecular target: T1, c-Met (Homo sapiens, UniProt P08581)
T1 construct: A PCR product covering residues 1058-1365 of c-Met (c-Met kinase domain) is generated; made in house; host or cells: Baculovirus cells (baculovirus/insect-cell expression)
Assay: c-Met Receptor Assay (HTRF kinase assay with GST-cMet (P) enzyme, gastrin and ATP)
Format: biochemical
Experimental: Cloning, Expression and Purification of c-Met Kinase Domain
Alternative purification of human GST-cMET from Baculovirus cells
The resin is washed with 10 column volumes (100 mL) of Lysis Buffer. […] The elution is collected as 15 mL fractions. Aliquots of the elution fractions are run on SDS PAGE (12% Tris Glycine gel, Invitrogen, #EC6005BOX). The gel is stained with 0.25% Coomassie Blue stain. Fractions with GST-cMET are concentrated with a Vivaspin 20 mL Concentrator (#VS2002; […]) to a final volume less than 2.0 ml. […] The GST-cMET is eluted with an isocratic run of the above buffer, with the eluent collected in 1.0 mL fractions. Fractions with significant OD280 readings are run on another 12% Tris Glycine gel. The peak tubes with GST-cMET are pooled and the OD280 is read with the column buffer listed above as the blank buffer. • Phosphorylation of the purified GST-cMET is performed by incubating the protein for 3 h at RT with the following:
After incubation, the solution is concentrated in a Vivaspin 20 ml Concentrator to a volume less than 2.00 ml. The solution is applied to the same Superdex 75 16/60 column used above after re-equilibration. The GST-cMET is eluted as described above. The elution fractions corresponding to the first eluted peak on the chromatogram are run on a 12% Tris Glycine gel, as above, to identify the fractions with GST-cMET. Fractions are pooled and the OD280 is read with the column buffer used as the blank.
A Kinase reaction Buffer is prepared as follows:
When the assay is carried out, freshly add:
The HTRF Buffer Contains: • 50 mM Tris-HCl (pH 7.5), 100 mM NaCl, 0.1% BSA, 0.05% Tween 20,5mM EDTA
Dilute GST-cMet (P) Enzyme in Kinase Buffer as Follows:
2. Assay Plate Preparation:
Then incubate the plate at RT for 30 min.
3. Prepare Gastrin and ATP working solution in kinase reaction buffer as follows:
Use Biomek FX to add 20 μl ATP and Gastrin working solution to the assay plate to start reaction, incubate the plate at RT for 1 h. 4. Transfer 5 μL reaction product at the end of 1 h into 80 μL HTRF buffer in black plate

T1 sequence (P08581 1058-1365): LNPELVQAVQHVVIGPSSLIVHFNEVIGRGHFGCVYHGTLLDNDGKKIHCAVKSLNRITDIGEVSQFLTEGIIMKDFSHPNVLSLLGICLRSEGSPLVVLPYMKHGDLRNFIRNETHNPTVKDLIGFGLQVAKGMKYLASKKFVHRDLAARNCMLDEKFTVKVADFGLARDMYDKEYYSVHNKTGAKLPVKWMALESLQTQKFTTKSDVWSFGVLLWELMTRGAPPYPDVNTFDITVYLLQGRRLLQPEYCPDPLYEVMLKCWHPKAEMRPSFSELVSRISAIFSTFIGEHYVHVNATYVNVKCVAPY

Q: Cc1cc(NC(=O)c2c(C)n(CC(C)(C)O)n(-c3ccccc3)c2=O)ccc1-c1cccc2cnccc12 [Example 10, 1-(2-Hydroxy-2-methylpropyl)-N-(4-(5-isoquinolinyl)-3-methylphenyl)-5-methyl-3-oxo-2-phenyl-2,3-dihydro-1H-pyrazole-4-carboxamide] was tested. Which Ki did it give?
A: The Ki was 373 nM.

Q: Cc1c(C(=O)Nc2ccc(-c3cccc4cnccc34)c(F)c2)c(=O)n(-c2ccccc2)n1C[C@H](C)O [Example 11, N-(3-fluoro-4-(isoquinolin-5-yl)phenyl)-1-((S)-2-hydroxypropyl)-5-methyl-3-oxo-2-phenyl-2,3-dihydro-1H-pyrazole-4-carboxamide] was tested. Which Ki did it give?
A: The Ki was 47 nM.

Q: For Cc1c(C(=O)Nc2ccc(-c3cccc4cnccc34)cc2F)c(=O)n(-c2ccccc2)n1CC(C)(C)O [Example 7, N-(2-fluoro-4-(5-isoquinolinyl)phenyl)-1-(2-hydroxy-2-methylpropyl)-5-methyl-3-oxo-2-phenyl-2,3-dihydro-1H-pyrazole-4-carboxamide], which Ki is on record?
A: The Ki was 156 nM.

Q: Which Ki does the source give for Cc1c(C(=O)Nc2ccc(-c3cccc4c(N(C)CCN(C)C)nccc34)cc2)c(=O)n(-c2ccccc2)n1CC(C)(C)O [Example 15, N-(4-(1-((2-(dimethylamino)ethyl)(methyl)amino)isoquinolin-5-yl)phenyl)-1-(2-hydroxy-2-methylpropyl)-5-methyl-3-oxo-2-phenyl-2,3-dihydro-1H-pyrazole-4-carboxamide] here?
A: Its Ki is over 6670 nM.

Q: How did the Ki turn out when Cc1c(C(=O)Nc2ccc(-c3cccc4cnccc34)c(F)c2)c(=O)n(-c2ccccc2)n1C [Example 4, N-(3-fluoro-4-(5-isoquinolinyl)phenyl)-1,5-dimethyl-3-oxo-2-phenyl-2,3-dihydro-1H-pyrazole-4-carboxamide] was run?
A: Its Ki is 73 nM.

Q: How did the Ki turn out when Cc1c(C(=O)Nc2ccc(-c3cccc4c(N)nccc34)c(F)c2)c(=O)n(-c2ccccc2)n1C [Example 2, N-(4-(1-amino-5-isoquinolinyl)-3-fluorophenyl)-1,5-dimethyl-3-oxo-2-phenyl-2,3-dihydro-1H-pyrazole-4-carboxamide] was run?
A: The Ki was 28 nM.

Q: How did the Ki turn out when Cc1c(C(=O)Nc2ccc(-c3cccc4c(N(C)CCCN(C)C)nccc34)cc2)c(=O)n(-c2ccccc2)n1CC(C)(C)O [Example 16, N-(4-(1-((3-(dimethylamino)propyl)(methyl)amino)isoquinolin-5-yl)phenyl)-1-(2-hydroxy-2-methylpropyl)-5-methyl-3-oxo-2-phenyl-2,3-dihydro-1H-pyrazole-4-carboxamide] was run?
A: Its Ki is 1450 nM.

Q: With Cc1c(C(=O)Nc2ccc(-c3cccc4[nH]nc(N)c34)c(F)c2)c(=O)n(-c2ccccc2)n1CC(C)(C)O [Example 5, N-(4-(3-amino-1H-indazol-4-yl)-3-fluorophenyl)-1-(2-hydroxy-2-methylpropyl)-5-methyl-3-oxo-2-phenyl-2,3-dihydro-1H-pyrazole-4-carboxamide] as the molecule, how does the Ki read?
A: The Ki was 85 nM.

Q: Which Ki does the source give for Cc1c(C(=O)Nc2ccc(-c3cccc4c(N)nccc34)c(F)c2)c(=O)n(-c2ccccc2)n1CC(C)(C)O [Example 3, N-(4-(1-amino-5-isoquinolinyl)-3-fluorophenyl)-1-(2-hydroxy-2-methylpropyl)-5-methyl-3-oxo-2-phenyl-2,3-dihydro-1H-pyrazole-4-carboxamide] here?
A: The Ki was 56 nM.

Q: Cc1c(C(=O)Nc2ccc(-c3cccc4cnccc34)c(F)c2)c(=O)n(-c2ccccc2)n1CC(C)(C)O [Example 6, N-(3-fluoro-4-(5-isoquinolinyl)phenyl)-1-(2-hydroxy-2-methylpropyl)-5-methyl-3-oxo-2-phenyl-2,3-dihydro-1H-pyrazole-4-carboxamide] was tested. Which Ki did it give?
A: Its Ki is 142 nM.

Q: Which Ki does the source give for Cc1c(C(=O)Nc2ccc(-c3cccc4c(NCCCN5CCOCC5)nccc34)cc2)c(=O)n(-c2ccccc2)n1CC(C)(C)O [Example 13, 1-(2-hydroxy-2-methylpropyl)-5-methyl-N-(4-(1-(3-morpholinopropylamino)-isoquinolin-5-yl)phenyl)-3-oxo-2-phenyl-2,3-dihydro-1H-pyrazole-4-carboxamide] here?
A: The Ki was 3290 nM.

Q: How did the Ki turn out when Cc1c(C(=O)Nc2ccc(-c3nncc4cnccc34)c(F)c2)c(=O)n(-c2ccccc2)n1C [Example 9, N-(3-fluoro-4-pyrido[3,4-d]pyridazin-1-ylphenyl)-1,5-dimethyl-3-oxo-2-phenyl-2,3-dihydro-1H-pyrazole-4-carboxamide] was run?
A: Its Ki is 2380 nM.

Q: For Cc1c(C(=O)Nc2ccc(-c3cccc4[nH]nc(N)c34)cc2)c(=O)n(-c2ccccc2)n1CC(C)(C)O [Example 8, N-(4-(3-amino-1H-indazol-4-yl)phenyl)-1-(2-hydroxy-2-methylpropyl)-5-methyl-3-oxo-2-phenyl-2,3-dihydro-1H-pyrazole-4-carboxamide], which Ki is on record?
A: The Ki was 252 nM.

Q: How did the Ki turn out when Cc1c(C(=O)Nc2ccc(-c3cccc4cnccc34)c(F)c2)c(=O)n(-c2ccccc2)n1C[C@@H](C)O [Example 12, N-(3-fluoro-4-(isoquinolin-5-yl)phenyl)-1-((R)-2-hydroxypropyl)-5-methyl-3-oxo-2-phenyl-2,3-dihydro-1H-pyrazole-4-carboxamide] was run?
A: Its Ki is 62 nM.

Q: For Cc1c(C(=O)Nc2ccc(-c3cccc4[nH]nc(N)c34)c(F)c2)c(=O)n(-c2ccccc2)n1C [Example 1, N-(4-(3-amino-1H-indazol-4-yl)-3-fluorophenyl)-1,5-dimethyl-3-oxo-2-phenyl-2,3-dihydro-1H-pyrazole-4-carboxamide], which Ki is on record?
A: The Ki was 21 nM.

Q: For Cc1c(C(=O)Nc2ccc(-c3cccc4c(NCCN(C)C)nccc34)cc2)c(=O)n(-c2ccccc2)n1CC(C)(C)O [Example 14, N-(4-(1-(2-(dimethylamino)ethylamino)isoquinolin-5-yl)phenyl)-1-(2-hydroxy-2-methylpropyl)-5-methyl-3-oxo-2-phenyl-2,3-dihydro-1H-pyrazole-4-carboxamide], which Ki is on record?
A: The Ki was over 20000 nM.
